Assay results published in patent US7452886B2, “Pyrrolo pyrimidines as agents for the inhibition of cystein proteases” (Novartis AG, priority 2001, dated 2008).

Biological target: T1, recombinant human cathepsin K (Homo sapiens, UniProt P43235)
T1 sequence (P43235 115-329): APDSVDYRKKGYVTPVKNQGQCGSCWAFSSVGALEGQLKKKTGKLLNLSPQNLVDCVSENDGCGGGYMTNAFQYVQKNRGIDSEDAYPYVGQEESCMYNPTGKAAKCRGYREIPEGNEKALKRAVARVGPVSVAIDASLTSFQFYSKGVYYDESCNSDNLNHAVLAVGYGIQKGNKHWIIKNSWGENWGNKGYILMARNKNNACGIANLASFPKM
Assay: In vitro inhibition of recombinant human cathepsin K (Z-Phe-Arg-AMCA fluorescence assay)
Format: biochemical
Details: recombinant human cathepsin K 0.16 nM, Z-Phe-Arg-AMCA substrate, pH 7.0, 30 min preincubation, 30 min incubation, ambient temperature
Description: The In Vitro assay is Carried out as Follows:
The assay is performed in 96 well microtiter plates at ambient temperature using recombinant human cathepsin K. Inhibition of cathepsin K is assayed at a constant enzyme (0.16 nM) and substrate concentration ([…] Z-Phe-Arg-AMCA—Peptide Institute Inc. Osaka, Japan) in 100 mM sodium phosphate buffer, pH 7.0, containing 2 mM dithiothreitol 20 mM Tween 80 and 1 mM EDTA. Cathepsin K is preincubated with the inhibitors for 30 min, and the reaction is initiated by the addition of substrate. After 30 min incubation the reaction is stopped by the addition of E-64 (2 mM), and fluorescence intensity is read on a multi-well plate reader at excitation and emission wavelengths of 360 and 460 nm, respectively. […] Thus for example, the compounds of Examples 6-15 and 7-45 have IC50s for inhibition of human cathepsin K of 1 nM and 0.6 nM respectively.

SMILES	IC50
Cc1ccc(N2CCN(Cc3cc4cnc(C#N)nc4n3CC(C)(C)C)CC2)cc1 [Example 6-15]	1 nM
CC(C)(C)Cn1c(CN2CCC3(CC2)NC(=O)NC3=O)cc2cnc(C#N)nc21 [Example 7-45]	0.6 nM
